Usually IC50 stands for the point on the concentration scale where inhibition reaches its midpoint. The low end stands for inhibition by little substance, the high end for a need for much substance.

In one test the test system is MAPKAPK2. Kind of test: Inhibition of MAPKAPK2 in GFP-MAPKAPk2_BHK cell model (nuclear translocation). It counts as cell-based. As to conditions: GFP-MAPKAPk2_BHK cells. The procedure:
In order to study p38α inhibition in a cell system, we investigated the ability of all compounds to inhibit the phosphorylation of mitogen-activated protein-kinase-activated protein kinase 2 (MAPKAPK2). Each compound was prepared at […] concentrations (1, 3, 10 and 30 nM, 0.1 and 0.3 μM), and the percentages of inhibition were calculated from the numbers of cells after treatment with the different compounds.
GFP-MAPKAPk2_BHK cells were cultured in 96-well plates (2.0 × 10^4/100 μL/well) containing 10% heat-inactivated foetal bovine serum (FBS) and 1 mg/mL G418 at 37 °C in humidified air containing 5% CO2 for 18–24 h. The cells were washed with nutrient solution (100 μL/well) and changed to the compound liquid (100 μL/well). Experiments were set up with the control, and the compound was repeated at each concentration in three wells. The cells were cultured in 96-well plates at 37 °C in humidified air containing 5% CO2 for 90 min. The cells were washed with the dye solution (20 μL/well), and the dyed cells were held for 1 hour at room temperature in the dye liquid. Analysis of nuclear translocation and calculation of the ability of the compounds to inhibit nuclear translocation was performed using the IN Cell Analyzer 1000 Nuclear Trafficking Analysis Module System (GE, Madison, WI, USA). The cultured cells were treated with the obtained compounds in […] concentration grads (1, 3, 10 and 30 nM, 0.1 and 0.3 μM). The inhibitory percentage can be calculated using the amounts of cells after the disposition of the different compounds.

The next test deals with MAPK14/p38α (Homo sapiens, UniProt Q16539). Kind of test: p38α MAP kinase activity, phosphorylation of ATF-2 (TR-FRET). The test is classed as biochemical. As to conditions: enzyme. Here is the method: Kinase reaction buffer was composed of 50 mM HEPES (pH 7.5), 0.01% BRIJ-35, 10 mM MgCl2 and 1 mM EGTA. Prepared MAPK14/p38α in 1× kinase buffer with concentration at 500 ng/mL. A 2-fold serial dilution was performed using 1× kinase buffer from 500 ng/mL using 16 dose points. […] The reaction was started by adding 5 μL of the GFP-ATF2(19–96) substrate and ATP solution into each well of the assay plate. The final starting concentration of MAPK14/p38α was 250ng/ml, and the final GFP-ATF2 and ATP concentrations were 0.4 μM and 90 μM, respectively. The assay plate was sealed and incubated for 1 hour at room temperature (RT). Antibody solution (1 mL) was prepared from 20 mM EDTA and 4 nM Tb-antipATF2 (pThr71) antibody in TR-FRET dilution buffer. Antibody solution (10 μL) was added into each well of the assay plate and mixed gently. The final EDTA concentration was 10 mM, and the final Tb-antipATF2 (pThr71) concentration was 2 nM. The assay plate was sealed and incubated for 30 minutes at RT.
Inhibitor in 0.5% DMSO (2 μL/well) at 5-fold the final assay concentration was added into a 384-well assay plate. […] MAPK14/p38α (4 μL/well) was added to each well of the 384-well assay plate and incubated for 15 min at RT. To start the reaction, substrate GFP-ATF2 (19–96) and ATP (4 μL/well) were added into kinase reaction buffer. […] The resulting TR-FRET emission ratio was plotted against the concentration of inhibitor, and the data fitted to a sigmoidal dose-response curve with a variable slope. The IC50 concentration was calculated from the curve.
A general note: Time-resolved FRET reads energy transfer from a long-lived donor to a nearby acceptor.

Each structure is given as a SMILES string. A value given as a limit tells only on which side of the number the result lay.

Sequence of MAPK14/p38α (Q16539 whole entry): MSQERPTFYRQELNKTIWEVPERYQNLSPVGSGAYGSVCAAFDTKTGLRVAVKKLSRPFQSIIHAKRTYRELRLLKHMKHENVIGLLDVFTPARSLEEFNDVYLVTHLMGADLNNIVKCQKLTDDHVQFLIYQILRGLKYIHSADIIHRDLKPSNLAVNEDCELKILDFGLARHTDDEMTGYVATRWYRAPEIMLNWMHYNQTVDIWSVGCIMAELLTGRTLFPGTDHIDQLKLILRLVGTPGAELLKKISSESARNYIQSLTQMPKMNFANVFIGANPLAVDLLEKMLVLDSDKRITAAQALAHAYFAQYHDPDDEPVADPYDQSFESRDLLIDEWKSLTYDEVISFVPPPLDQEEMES

For the compound `CC(C)(C)c1cc(NC(=O)Nc2ccc(Oc3ccc4[nH]ncc4c3)c3c2OCC=C3)n(-c2ccc(S(N)(=O)=O)cc2)n1` [26c, 4-(5-(3-(5-((1H-Indazol-5-yl)oxy)-2H-chromen-8-yl)ureido)-3-(tert-butyl)-1H-pyrazol-1-yl)benzenesulfonamide], in the test on MAPKAPK2, 0.2457 ± 0.00209 µM corresponded to half-maximal inhibition (IC50).

For the compound `Cc1ccc(-n2nc(C(C)(C)C)cc2NC(=O)Nc2ccccc2Oc2ccc3[nH]ncc3c2)cc1` [29a, 1-(2-((1H-Indazol-5-yl)oxy)phenyl)-3-(3-(tert-butyl)-1-(p-tolyl)-1H-pyrazol-5-yl)urea], the IC50 at MAPK14/p38α (bound given in µM) and with MAPKAPK2 (bound given in µM) was more than 10 µM in each case.

On to `CC(C)(C)c1cc(NC(=O)NCc2ccccc2OCCN2CCOCC2)n(-c2ccccc2)n1` [30d, 1-(3-(tert-Butyl)-1-phenyl-1H-pyrazol-5-yl)-3-(2-(2-morpholinoethoxy)benzyl)urea], for which the IC50 in the test on MAPKAPK2 (bound given in µM) is more than 3 µM.

For `CC(C)(C)c1cc(NC(=O)Nc2ccccc2OCCN2CCOCC2)n(-c2ccccc2)n1` [28b, 1-(3-(tert-Butyl)-1-phenyl-1H-pyrazol-5-yl)-3-(2-(2-morpholinoethoxy)phenyl)urea], the IC50 against MAPK14/p38α (bound given in µM) and with MAPKAPK2 (bound given in µM) was more than 10 µM in each case.

`CC(C)(C)c1cc(NC(=O)Nc2ccccc2OCCN2CCOCC2)n(-c2ccc(F)cc2)n1` [28g, 1-(3-(tert-Butyl)-1-(4-fluorophenyl)-1H-pyrazol-5-yl)-3-(2-(2-morpholinoethoxy)phenyl)urea] returned a half-inhibitory concentration (IC50) in the test on MAPKAPK2 (bound given in µM) of more than 10 µM.

Consider `CC(C)(C)c1cc(NC(=O)Nc2ccccc2Oc2ccc3[nH]ncc3c2)n(-c2ccc(Cl)cc2)n1` [29e, 1-(2-((1H-Indazol-5-yl)oxy)phenyl)-3-(3-(tert-butyl)-1-(4-chlorophenyl)-1H-pyrazol-5-yl)urea], for which the half-maximal inhibitory concentration (IC50) with MAPKAPK2 (bound given in µM) is more than 10 µM.

With `CC(C)(C)c1cc(NC(=O)Nc2ccc(Oc3ccc4[nH]ncc4c3)c3c2OCC=C3)n(-c2ccc([N+](=O)[O-])cc2)n1` [26f, 1-(5-((1H-Indazol-5-yl)oxy)-2H-chromen-8-yl)-3-(3-(tert-butyl)-1-(4-nitrophenyl)-1H-pyrazol-5-yl)urea], the 50% inhibitory concentration (IC50) in the test on MAPKAPK2 is 0.0412 ± 0.00146 µM.

For `CC(C)(C)c1cc(NC(=O)NCc2cc(F)ccc2Oc2ccc3[nH]ncc3c2)n(-c2ccc([N+](=O)[O-])cc2)n1` [25i, 1-(2-((1H-Indazol-5-yl)oxy)-5-fluorobenzyl)-3-(3-(tert-butyl)-1-(4-nitrophenyl)-1H-pyrazol-5-yl)urea], the concentration for half-maximal inhibition (IC50) against MAPK14/p38α (GFP-ATF2 substrate, 90 μM ATP) is 0.00143 ± 8e-05 µM; with MAPKAPK2 it was 0.00383 ± 0.00112 µM.

`CC(C)(C)c1cc(NC(=O)NCc2ccccc2OCCN2CCOCC2)n(-c2ccc(S(N)(=O)=O)cc2)n1` [30c, 4-(3-(tert-Butyl)-5-(3-(2-(2-morpholinoethoxy)benzyl)ureido)-1H-pyrazol-1-yl)benzenesulfonamide] had a concentration for half-maximal inhibition (IC50) in the test on MAPKAPK2 (bound given in µM) of more than 3 µM.

In turn, `CC(C)(C)c1cc(NC(=O)Nc2ccccc2Oc2ccc3[nH]ncc3c2)n(-c2ccc([N+](=O)[O-])cc2)n1` [29h, 1-(2-((1H-Indazol-5-yl)oxy)phenyl)-3-(3-(tert-butyl)-1-(4-nitrophenyl)-1H-pyrazol-5-yl)urea] returned a 50% inhibitory concentration (IC50) in the test with MAPKAPK2 (bound given in µM) of more than 10 µM.

Regarding `CC(C)(C)c1cc(NC(=O)Nc2ccc(Oc3ccc4[nH]ncc4c3)c3c2OCC=C3)n(-c2ccc(F)cc2)n1` [26e, 1-(5-((1H-Indazol-5-yl)oxy)-2H-chromen-8-yl)-3-(3-(tert-butyl)-1-(4-fluorophenyl)-1H-pyrazol-5-yl)urea], the 50% inhibitory concentration (IC50) on MAPK14/p38α (GFP-ATF2 substrate, 90 μM ATP) was 0.00596 ± 1e-05 µM; with MAPKAPK2, 0.038 ± 0.00124 µM.

As for `COc1ccc(-n2nc(C(C)(C)C)cc2NC(=O)Nc2ccc(Oc3ccc4[nH]ncc4c3)c3c2OCC=C3)cc1` [26d, 1-(5-((1H-Indazol-5-yl)oxy)-2H-chromen-8-yl)-3-(3-(tert-butyl)-1-(4-methoxyphenyl)-1H-pyrazol-5-yl)urea], inhibition in the test with MAPKAPK2 was half-maximal at 0.0698 ± 0.00208 µM (IC50).

On to `CC(C)(C)c1cc(NC(=O)Nc2ccccc2OCCN2CCOCC2)n(-c2ccc(Cl)cc2)n1` [28e, 1-(3-(tert-Butyl)-1-(4-chlorophenyl)-1H-pyrazol-5-yl)-3-(2-(2-morpholinoethoxy)phenyl)urea], for which the IC50 in the test with MAPKAPK2 (bound given in µM) is more than 10 µM.

With `CC(C)(C)c1cc(NC(=O)Nc2ccc(Oc3ccc4[nH]ncc4c3)c3c2OCC=C3)n(-c2ccccc2)n1` [26b, 1-(5-((1H-Indazol-5-yl)oxy)-2H-chromen-8-yl)-3-(3-(tert-butyl)-1-phenyl-1H-pyrazol-5-yl)urea], the half-maximal inhibitory concentration (IC50) on MAPK14/p38α (GFP-ATF2 substrate, 90 μM ATP) was found to be 0.00514 ± 0.00033 µM; with MAPKAPK2, 0.0223 ± 0.00188 µM.

As for `CC(C)(C)c1cc(NC(=O)Nc2ccccc2OCCN2CCOCC2)n(-c2ccc(Br)cc2)n1` [28f, 1-(1-(4-Bromophenyl)-3-(tert-butyl)-1H-pyrazol-5-yl)-3-(2-(2-morpholinoethoxy)phenyl)urea], the IC50 with MAPKAPK2 (bound given in µM) is more than 10 µM.

For the compound `CC(C)(C)c1cc(NC(=O)Nc2ccccc2OCCN2CCOCC2)n(-c2ccc(S(N)(=O)=O)cc2)n1` [28i, 4-(3-(tert-Butyl)-5-(3-(2-(2-morpholinoethoxy)phenyl)ureido)-1H-pyrazol-1-yl)benzenesulfonamide], the IC50 in the test with MAPKAPK2 (bound given in µM) is more than 10 µM.

The compound `CC(C)(C)c1cc(NC(=O)Nc2ccccc2OCCN2CCOCC2)n(-c2ccc([N+](=O)[O-])cc2)n1` [28h, 1-(3-(tert-Butyl)-1-(4-nitrophenyl)-1H-pyrazol-5-yl)-3-(2-(2-morpholinoethoxy)phenyl)urea] displayed an IC50 in the test on MAPKAPK2 (bound given in µM) of more than 10 µM.

`CC(C)(C)c1cc(NC(=O)Nc2ccccc2Oc2ccc3[nH]ncc3c2)n(-c2ccc(Br)cc2)n1` [29f, 1-(2-((1H-Indazol-5-yl)oxy)phenyl)-3-(1-(4-bromophenyl)-3-(tert-butyl)-1H-pyrazol-5-yl)urea] registered a half-inhibitory concentration (IC50) in the test with MAPKAPK2 (bound given in µM) of more than 10 µM.

Take `Cc1cccc(-n2nc(C(C)(C)C)cc2NC(=O)Nc2ccccc2OCCN2CCOCC2)c1` [28c, 1-(3-(tert-Butyl)-1-(m-tolyl)-1H-pyrazol-5-yl)-3-(2-(2-morpholinoethoxy)phenyl)urea]: the IC50 with MAPKAPK2 (bound given in µM) was more than 10 µM.

Consider `CC(C)(C)c1cc(NC(=O)Nc2ccccc2Oc2ccc3[nH]ncc3c2)n(-c2ccc(F)cc2)n1` [29g, 1-(2-((1H-Indazol-5-yl)oxy)phenyl)-3-(3-(tert-butyl)-1-(4-fluorophenyl)-1H-pyrazol-5-yl)urea], for which the IC50 in the test with MAPKAPK2 (bound given in µM) is more than 10 µM.

On to `Cc1ccc(-n2nc(C(C)(C)C)cc2NC(=O)NCc2ccccc2OCCN2CCOCC2)cc1` [30b, 1-(3-(tert-Butyl)-1-(p-tolyl)-1H-pyrazol-5-yl)-3-(2-(2-morpholinoethoxy)benzyl)urea], for which the concentration for half-maximal inhibition (IC50) in the test on MAPKAPK2 (bound given in µM) is more than 3 µM.

In the test on MAPKAPK2 (bound given in µM), `Cc1cccc(-n2nc(C(C)(C)C)cc2NC(=O)Nc2ccccc2Oc2ccc3[nH]ncc3c2)c1` [29c, 1-(2-((1H-Indazol-5-yl)oxy)phenyl)-3-(3-(tert-butyl)-1-(m-tolyl)-1H-pyrazol-5-yl)urea] gave an IC50 of more than 10 µM.

With `Cc1ccc(-n2nc(C(C)(C)C)cc2NC(=O)Nc2ccc(Oc3ccc4[nH]ncc4c3)c3c2OCC=C3)cc1` [26a, 1-(5-((1H-Indazol-5-yl)oxy)-2H-chromen-8-yl)-3-(3-(tert-butyl)-1-(p-tolyl)-1H-pyrazol-5-yl)urea], in the test on MAPKAPK2, the IC50 turned out to be 0.0607 ± 0.00231 µM.

On to `CC(C)(C)c1cc(NC(=O)NCc2ccccc2OCCN2CCOCC2)n(-c2ccc(Cl)cc2)n1` [30a, 1-(3-(tert-Butyl)-1-(4-chlorophenyl)-1H-pyrazol-5-yl)-3-(2-(2-morpholinoethoxy)benzyl)urea], for which the 50% inhibitory concentration (IC50) in the test on MAPKAPK2 (bound given in µM) was more than 3 µM.

For the compound `COc1ccc(-n2nc(C(C)(C)C)cc2NC(=O)Nc2ccccc2Oc2ccc3[nH]ncc3c2)cc1` [29d, 1-(2-((1H-Indazol-5-yl)oxy)phenyl)-3-(3-(tert-butyl)-1-(4-methoxyphenyl)-1H-pyrazol-5-yl)urea], the IC50 with MAPKAPK2 (bound given in µM) is more than 10 µM.

Consider `COc1ccc(-n2nc(C(C)(C)C)cc2NC(=O)Nc2ccccc2OCCN2CCOCC2)cc1` [28d, 1-(3-(tert-Butyl)-1-(4-methoxyphenyl)-1H-pyrazol-5-yl)-3-(2-(2-morpholinoethoxy)phenyl)urea], for which the IC50 in the test with MAPKAPK2 (bound given in µM) was more than 10 µM.

Consider `CC(C)(C)c1cc(NC(=O)Nc2ccccc2Oc2ccc3[nH]ncc3c2)n(-c2ccc(S(N)(=O)=O)cc2)n1` [29i, 4-(5-(3-(2-((1H-Indazol-5-yl)oxy)phenyl)ureido)-3-(tert-butyl)-1H-pyrazol-1-yl)benzenesulfonamide], for which the concentration for half-maximal inhibition (IC50) in the test with MAPKAPK2 (bound given in µM) is more than 10 µM.

These data come from paper PMC6272846, “Synthesis and p38 Inhibitory Activity of Some Novel Substituted N,N′-Diarylurea Derivatives” (Molecules, 2016).
